In patent publication US20120220564A1, “SELECTIVE CALCIUM CHANNEL MODULATORS” (Zalicus Pharmaceuticals Ltd., priority 2009, published 2012):

Tests used:
[1] = system: Lamina I/II spinal cord neurons; assay: Lamina assay, current-clamp recordings in spinal cord slices; format: cell-based, rat; conditions: Lamina I and II neurons
Description: Male Wistar rats (P6 to P9 for voltage-clamp and P15 to P18 for current-clamp recordings) were anaesthetized through intraperitoneal injection of Inactin (Sigma). The spinal cord was then rapidly dissected out and placed in an ice-cold solution protective sucrose solution containing (in mM): 50 sucrose, 92 NaCl, 15 D-Glucose, 26 NaHCO3, 5 KCl, 1.25 NaH2PO4, 0.5 CaCl2, 7 MgSO4, 1 kynurenic acid, and bubbled with 5% CO2/95% O2. The meninges, dura, and dorsal and ventral roots were then removed from the lumbar region of the spinal cord under a dissecting microscope. The “cleaned” lumbar region of the spinal cord was glued to the vibratome stage and immediately immersed in ice cold, bubbled, sucrose solution. For current-clamp recordings, 300 to 350 μm parasagittal slices were cut to preserve the dendritic arbour of lamina I neurons, while 350 to 400 μm transverse slices were prepared for voltage-clamped […] channel recordings. Slices were allowed to recover for 1 hour at 35° C. in Ringer solution containing (in mM): 125 NaCl, 20 D-Glucose, 26 NaHCO3, 3 KCl, 1.25 NaH2PO4, 2 CaCl2, 1 MgCl2, 1 kynurenic acid, 0.1 picrotoxin, bubbled with 5% CO2/95% O2. The slice recovery chamber was then returned to room temperature (20 to 22° C.) and all recordings were performed at this temperature.
Neurons were visualized using IR-DIC optics (Zeiss Axioskop 2 FS plus, Gottingen, Germany), and neurons from lamina I and the outer layer of lamina II were selected based on their location relative to the substantia gelatinosa layer. Neurons were patch-clamped using borosilicate glass patch pipettes with resistances of […] Current-clamp recordings of lamina I/II neurons in the intact slice, the external recording solution was the above Ringer solution, while the internal patch pipette solution contained (in mM): 140 KGluconate, 4 NaCl, 10 HEPES, 1 EGTA, 0.5 MgCl2, 4 MgATP, 0.5 Na2GTP, adjusted to pH 7.2 with 5 M KOH and to 290 mOsm with D-Mannitol (if necessary). […]

[2] = system: Rat SNL tactile allodynia; assay: L5/L6 spinal nerve ligation (SNL) Chung pain model, tactile allodynia (von Frey); format: in vivo; conditions: for % Antiallodynia (Mean ± SD): 100 mg/kg PO, n = 7-8
Description: The Spinal Nerve Ligation is an animal model representing peripheral nerve injury generating a neuropathic pain syndrome. In this model experimental animals develop the clinical symptoms of tactile allodynia and hyperalgesia. L5/L6 Spinal nerve ligation (SNL) injury was induced using the procedure of Kim and Chung (Kim et al., Pain 50:355-363 (1992)) in male Sprague-Dawley rats (Harlan; Indianapolis, Ind.) weighing 200 to 250 grams.
Anaesthesia was induced with 2% isofluorane in O2 at 2 L/min and maintained with 0.5% isofluorane in O2. Rats were then shaved and aseptically prepared for surgeries. A 2 cm paraspinal incision was made at the level of L4-S2. L4/L5 was exposed by removing the transverse process above the nerves with a small rongeur. The L5 spinal nerve is the larger of the two visible nerves below the transverse process and lies closest to the spine. The L6 spinal nerve is located beneath the corner of the slope bone. A home-made glass Chung rod was used to hook L5 or L6 and a pre-made slip knot of 4.0 silk suture was placed on the tip of the rod just above the nerve and pulled underneath to allow for the tight ligation. The L5 and L6 spinal nerves were tightly ligated distal to the dorsal root ganglion. The incision was closed, and the animals were allowed to recover for 5 days.
Sham control rats underwent the same operation and handling as the experimental animals, but without SNL.
Prior to initiating drug delivery, baseline behavioural testing data is obtained. At selected times after infusion of the Test or Control Article behavioural data can then be collected again.
The assessment of tactile allodynia consisted of measuring the withdrawal threshold of the paw ipsilateral to the site of nerve injury in response to probing with a series of calibrated von Frey filaments (innocuous stimuli). Animals were acclimated to the suspended wire-mesh cages for 30 min before testing. Each von Frey filament was applied perpendicularly to the plantar surface of the ligated paw of rats for 5 sec. A positive response was indicated by a sharp withdrawal of the paw. For rats, the first testing filament is 4.31. Measurements were taken before and after administration of test articles. […] The protocol was repeated until three changes in behaviour were determined (“up and down” method) (Chaplan et al., J. Neurosci. Methods 53:55-63 (1994)). The 50% paw withdrawal threshold was determined as (10^[Xf+kδ])/10,000, where Xf=the value of the last von Frey filament employed, k=Dixon value for the positive/negative pattern, and δ=the logarithmic difference between stimuli. The cut-off values for rats were no less than 0.2 g and no higher than 15 g (5.18 filament); for mice no less than 0.03 g and no higher than 2.34 g (4.56 filament). A significant drop of the paw withdrawal threshold compared to the pre-treatment baseline is considered tactile allodynia.

α1H (CaV 3.2) = biological target: T1, α1H (CaV 3.2) (Homo sapiens, UniProt O95180); assay: T-type calcium channel block, whole cell patch clamp; format: cell-based; conditions: HEK cells, mainly non-inactivated protocol; values above 10,000 nM represented as 10000
T1 construct: expressed in transfected cells; host or cells: HEK 293
T1 sequence (O95180 whole entry): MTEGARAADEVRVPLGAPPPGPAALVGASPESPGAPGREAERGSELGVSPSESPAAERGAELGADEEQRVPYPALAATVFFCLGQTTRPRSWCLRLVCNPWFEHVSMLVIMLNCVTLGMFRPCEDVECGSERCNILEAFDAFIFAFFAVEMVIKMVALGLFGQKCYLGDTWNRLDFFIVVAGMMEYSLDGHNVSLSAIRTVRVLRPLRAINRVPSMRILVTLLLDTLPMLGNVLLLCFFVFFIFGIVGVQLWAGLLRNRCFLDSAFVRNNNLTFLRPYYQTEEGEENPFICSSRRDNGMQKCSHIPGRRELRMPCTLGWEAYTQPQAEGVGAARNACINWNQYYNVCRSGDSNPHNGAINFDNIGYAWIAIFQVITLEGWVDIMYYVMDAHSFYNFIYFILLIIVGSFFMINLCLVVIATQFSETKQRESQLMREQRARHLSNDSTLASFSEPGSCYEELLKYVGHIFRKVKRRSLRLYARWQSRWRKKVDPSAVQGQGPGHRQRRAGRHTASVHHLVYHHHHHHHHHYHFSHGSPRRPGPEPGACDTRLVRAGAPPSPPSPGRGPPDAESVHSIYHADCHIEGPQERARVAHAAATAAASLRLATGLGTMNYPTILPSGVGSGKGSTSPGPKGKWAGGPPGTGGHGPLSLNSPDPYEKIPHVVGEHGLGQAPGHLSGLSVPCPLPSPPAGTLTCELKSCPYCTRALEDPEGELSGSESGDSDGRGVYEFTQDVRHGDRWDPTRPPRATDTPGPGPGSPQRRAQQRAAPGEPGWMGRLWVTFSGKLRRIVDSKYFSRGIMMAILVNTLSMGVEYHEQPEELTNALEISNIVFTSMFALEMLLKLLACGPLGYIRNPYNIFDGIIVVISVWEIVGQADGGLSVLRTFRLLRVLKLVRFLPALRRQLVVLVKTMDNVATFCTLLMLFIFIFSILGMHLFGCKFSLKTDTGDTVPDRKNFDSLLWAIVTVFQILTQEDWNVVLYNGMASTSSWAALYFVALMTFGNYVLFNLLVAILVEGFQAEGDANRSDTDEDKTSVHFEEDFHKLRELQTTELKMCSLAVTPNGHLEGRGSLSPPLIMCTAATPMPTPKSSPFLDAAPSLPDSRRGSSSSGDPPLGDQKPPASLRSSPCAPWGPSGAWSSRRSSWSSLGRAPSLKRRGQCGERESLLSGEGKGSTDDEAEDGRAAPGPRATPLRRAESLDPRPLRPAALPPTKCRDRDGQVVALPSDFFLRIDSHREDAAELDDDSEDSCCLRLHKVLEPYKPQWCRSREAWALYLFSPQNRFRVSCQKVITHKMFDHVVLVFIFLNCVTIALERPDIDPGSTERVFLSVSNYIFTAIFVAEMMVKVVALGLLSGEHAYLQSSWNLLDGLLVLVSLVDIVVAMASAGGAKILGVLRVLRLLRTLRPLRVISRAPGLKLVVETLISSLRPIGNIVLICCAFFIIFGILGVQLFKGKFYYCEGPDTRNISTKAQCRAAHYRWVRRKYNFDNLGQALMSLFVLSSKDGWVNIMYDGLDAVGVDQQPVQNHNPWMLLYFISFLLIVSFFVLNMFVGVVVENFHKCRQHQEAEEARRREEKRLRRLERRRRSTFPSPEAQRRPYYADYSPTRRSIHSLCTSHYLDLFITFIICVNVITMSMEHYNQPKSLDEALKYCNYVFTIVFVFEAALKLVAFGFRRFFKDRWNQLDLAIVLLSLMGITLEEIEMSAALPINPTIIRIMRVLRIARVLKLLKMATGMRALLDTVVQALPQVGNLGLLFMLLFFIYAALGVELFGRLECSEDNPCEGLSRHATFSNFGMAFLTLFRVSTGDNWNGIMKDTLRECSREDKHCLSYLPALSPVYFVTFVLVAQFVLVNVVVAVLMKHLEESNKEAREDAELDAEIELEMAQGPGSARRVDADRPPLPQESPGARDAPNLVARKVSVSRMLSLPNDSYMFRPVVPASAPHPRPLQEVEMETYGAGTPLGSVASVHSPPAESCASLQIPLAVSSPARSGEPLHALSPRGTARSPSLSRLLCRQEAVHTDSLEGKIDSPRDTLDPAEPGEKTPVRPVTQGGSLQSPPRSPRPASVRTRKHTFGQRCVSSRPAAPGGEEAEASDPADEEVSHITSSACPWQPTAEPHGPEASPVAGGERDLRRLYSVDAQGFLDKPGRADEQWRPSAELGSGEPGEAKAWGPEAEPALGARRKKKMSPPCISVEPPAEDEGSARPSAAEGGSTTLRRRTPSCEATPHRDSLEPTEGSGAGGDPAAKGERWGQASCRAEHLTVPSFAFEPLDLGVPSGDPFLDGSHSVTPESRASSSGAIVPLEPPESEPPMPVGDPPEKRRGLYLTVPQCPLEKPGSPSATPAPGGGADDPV
Description: (§1) T-type calcium channel blocking activity was assayed in human embryonic kidney cells, HEK 293 (Invitrogen), stably transfected with the T-type calcium channel subunits. Briefly, cells were cultured in Dulbecco's modified eagle medium (DMEM) supplemented with 10% fetal bovine serum, 200 U/ml penicillin, and 0.2 mg/mL streptomycin at 37° C. with 5% CO2. At 85% confluency, cells were split with 0.25% trypsin/1 mM EDTA and plated at 10% confluency on glass coverslips. At 12 hours, the medium was replaced, and the cells stably transfected using a standard calcium phosphate protocol and the appropriate calcium channel cDNA's. Fresh DMEM was supplied, and the cells transferred to 28° C./5% CO2. Cells were incubated for 1 to 2 days prior to whole cell recording.
(§2) Standard patch-clamp techniques were employed to identify blockers of T-type currents. Briefly, previously described HEK cell lines stably expressing human α1G, α1H and α1I T-type channels were used for all the recordings (passage #: 4-20, 37° C., 5% CO2). Whole cell patch clamp experiments were performed using an Axopatch 200B amplifier (Axon Instruments, Burlingame, Calif.) linked to a personal computer equipped with pCLAMP software. Data were analyzed using Clampfit (Axon Instruments) and SigmaPlot 4.0 (Jandel Scientific). To obtain T-type currents, plastic dishes containing semi-confluent cells were positioned on the stage of a ZEISS AXIOVERT S100 microscope after replacing the culture medium with external solution (Table 2). Whole-cell patches were obtained using pipettes (borosilicate glass with filament, O.D.: 1.5 mm, I.D.: 0.86 mm, 10 cm length), fabricated on a SUTTER P-97 puller with resistance values of ˜5 MΩ (Table 3).
(§3) T-type currents were reliably obtained by using two voltage protocols:
(§4) In the non-inactivating protocol, the holding potential is set at −110 mV and with a pre-pulse at −100 mV for 1 second prior to the test pulse at −40 mV for 50 ms. In the inactivation protocol, the pre-pulse is at approximately −85 mV for 1 second, which inactivates about 15% of the T-type channels (Scheme 1).
(§5) Test compounds were dissolved in external solution, 0.1-0.01% DMSO. After ˜10 minutes rest, they were applied by gravity close to the cell using a WPI microfil tubing. The “non-inactivated” pre-pulse was used to examine the resting block of a compound. The “inactivated” protocol was employed to study voltage-dependent block. However, the initial data shown below were mainly obtained using the non-inactivated protocol only. IC50 values are shown for various compounds of the invention in Table 4. […] In Table 4, empty cells indicate that inhibition by the compound was not detected.

6 Hz psychomotor seizure = 6 Hz psychomotor seizure model of partial epilepsy; format: in vivo, mice; design: concentration or dose not given beside the values
Description: Compounds can also be evaluated for the protection against seizures induced by a 6 Hz, 0.2 ms rectangular pulse width of 3 s duration, at a stimulus intensity of 32 mA (CC97) applied to the cornea of male CF1 mice (20-30 g) according to procedures described by Barton et al, “Pharmacological Characterization of the 6 Hz Psychomotor Seizure Model of Partial Epilepsy,” Epilepsy Res. 47(3):217-27 (2001). Seizures are characterised by the expression of one or more of the following behaviours: stun, forelimb clonus, twitching of the vibrissae and Straub-tail immediately following electrical stimulation.

α1G (CaV 3.1) = biological target: T2, α1G (CaV 3.1) (Homo sapiens, UniProt O43497); assay: T-type calcium channel block, whole cell patch clamp; format: cell-based; conditions: HEK cells, mainly non-inactivated protocol; values above 10,000 nM represented as 10000
T2 construct: expressed in transfected cells; host or cells: HEK 293
T2 sequence (O43497 whole entry): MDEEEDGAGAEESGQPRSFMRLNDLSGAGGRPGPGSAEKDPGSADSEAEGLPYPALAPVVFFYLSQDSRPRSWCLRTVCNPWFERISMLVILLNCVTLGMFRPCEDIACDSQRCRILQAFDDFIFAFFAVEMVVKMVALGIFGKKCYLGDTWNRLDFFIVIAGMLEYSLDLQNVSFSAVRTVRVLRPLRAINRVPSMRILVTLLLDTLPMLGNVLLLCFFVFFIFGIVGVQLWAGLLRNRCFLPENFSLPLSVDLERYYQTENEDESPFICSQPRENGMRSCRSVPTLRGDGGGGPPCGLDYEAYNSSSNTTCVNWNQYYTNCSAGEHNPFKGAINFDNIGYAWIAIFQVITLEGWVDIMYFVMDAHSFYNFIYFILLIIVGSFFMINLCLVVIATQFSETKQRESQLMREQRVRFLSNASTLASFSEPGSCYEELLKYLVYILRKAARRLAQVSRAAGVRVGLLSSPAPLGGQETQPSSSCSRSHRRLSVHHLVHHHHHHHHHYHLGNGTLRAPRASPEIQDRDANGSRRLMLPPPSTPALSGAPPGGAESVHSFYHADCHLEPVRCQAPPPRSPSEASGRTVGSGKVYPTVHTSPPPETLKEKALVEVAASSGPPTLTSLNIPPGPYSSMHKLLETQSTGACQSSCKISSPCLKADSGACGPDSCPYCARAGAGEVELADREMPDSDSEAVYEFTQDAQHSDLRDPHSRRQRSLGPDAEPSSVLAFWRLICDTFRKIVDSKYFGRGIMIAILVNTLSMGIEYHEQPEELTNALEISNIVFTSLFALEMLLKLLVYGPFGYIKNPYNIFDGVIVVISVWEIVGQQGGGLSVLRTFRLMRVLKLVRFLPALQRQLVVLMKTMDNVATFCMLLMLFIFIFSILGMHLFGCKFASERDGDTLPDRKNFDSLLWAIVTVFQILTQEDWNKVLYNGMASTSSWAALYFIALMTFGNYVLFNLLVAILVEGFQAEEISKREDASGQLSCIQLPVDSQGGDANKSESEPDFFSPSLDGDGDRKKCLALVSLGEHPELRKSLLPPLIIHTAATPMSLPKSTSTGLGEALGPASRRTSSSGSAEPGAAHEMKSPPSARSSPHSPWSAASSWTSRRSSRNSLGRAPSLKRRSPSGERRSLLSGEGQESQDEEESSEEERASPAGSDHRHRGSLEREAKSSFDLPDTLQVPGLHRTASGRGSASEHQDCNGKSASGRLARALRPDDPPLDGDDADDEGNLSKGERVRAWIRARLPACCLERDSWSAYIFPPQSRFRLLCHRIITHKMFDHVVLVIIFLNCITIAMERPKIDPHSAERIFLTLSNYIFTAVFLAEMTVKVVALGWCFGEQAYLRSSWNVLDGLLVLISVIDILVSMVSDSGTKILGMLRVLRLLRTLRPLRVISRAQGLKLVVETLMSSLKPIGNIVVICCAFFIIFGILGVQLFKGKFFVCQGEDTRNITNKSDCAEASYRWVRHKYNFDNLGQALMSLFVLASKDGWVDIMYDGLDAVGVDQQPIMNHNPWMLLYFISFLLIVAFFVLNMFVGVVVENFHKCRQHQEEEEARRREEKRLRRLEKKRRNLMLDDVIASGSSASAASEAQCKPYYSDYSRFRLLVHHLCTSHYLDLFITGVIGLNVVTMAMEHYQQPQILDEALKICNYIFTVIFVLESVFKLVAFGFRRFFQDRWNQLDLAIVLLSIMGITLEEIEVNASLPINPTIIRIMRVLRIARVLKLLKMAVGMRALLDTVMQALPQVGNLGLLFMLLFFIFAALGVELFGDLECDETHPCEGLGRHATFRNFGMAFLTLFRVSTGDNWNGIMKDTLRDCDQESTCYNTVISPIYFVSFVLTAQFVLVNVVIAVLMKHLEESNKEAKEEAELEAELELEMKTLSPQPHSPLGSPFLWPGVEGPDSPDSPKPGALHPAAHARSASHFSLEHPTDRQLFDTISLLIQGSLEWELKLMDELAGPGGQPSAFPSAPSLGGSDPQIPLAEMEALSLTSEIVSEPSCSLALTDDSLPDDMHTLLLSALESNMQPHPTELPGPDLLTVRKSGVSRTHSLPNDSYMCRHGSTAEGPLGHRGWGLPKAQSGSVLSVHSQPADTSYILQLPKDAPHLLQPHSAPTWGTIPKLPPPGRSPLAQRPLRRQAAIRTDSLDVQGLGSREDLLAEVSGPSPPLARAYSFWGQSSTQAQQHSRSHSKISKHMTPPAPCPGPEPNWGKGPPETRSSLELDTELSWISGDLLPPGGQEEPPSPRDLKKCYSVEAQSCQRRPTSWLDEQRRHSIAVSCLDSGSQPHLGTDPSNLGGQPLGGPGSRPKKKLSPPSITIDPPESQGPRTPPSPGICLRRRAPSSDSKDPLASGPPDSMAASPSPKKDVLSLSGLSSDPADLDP
Description: as §1, §2, §3, §4, §5

[3] = system: minimal muscular or neurological impairment (rotarod); assay: Mouse rotarod assay; format: in vivo, mice
Description: To assess a compound's undesirable side effects (toxicity), animals can be monitored for overt signs of impaired neurological or muscular function. In mice, the rotarod procedure (Dunham and Miya, J. Am. Pharmacol. Assoc. 46:208-209 (1957)) is used to disclose minimal muscular or neurological impairment (MMI). When a mouse is placed on a rod that rotates at a speed of 6 rpm, the animal can maintain its equilibrium for long periods of time. The animal is considered toxic if it falls off this rotating rod three times during a 1-min period.

| SMILES | Rat SNL tactile allodynia (% antiallodynia) ([2]; 1 hr) | Rat SNL tactile allodynia (% antiallodynia) ([2]; 2 hr) | Rat SNL tactile allodynia (% antiallodynia) ([2]; 4 hr) | IC50 (α1H (CaV 3.2)) | Epilepsy 6 Hz (% Protected) (6 Hz psychomotor seizure; 0.25 hr) | Epilepsy 6 Hz (% Protected) (6 Hz psychomotor seizure; 0.5 hr) | Epilepsy 6 Hz (% Protected) (6 Hz psychomotor seizure; 1 hr) | Epilepsy 6 Hz (% Protected) (6 Hz psychomotor seizure; 2 hr) | IC50 (α1G (CaV 3.1)) | Rotarod Assay (% impaired) ([3]; 0.25 hr) | Rotarod Assay (% impaired) ([3]; 0.5 hr) | Rotarod Assay (% impaired) ([3]; 1 hr) | Rotarod Assay (% impaired) ([3]; 2 hr) | Rotarod Assay (% impaired) ([3]; 4 hr) | also measured |
| --- | --- | --- | --- | --- | --- | --- | --- | --- | --- | --- | --- | --- | --- | --- | --- |
| O=C(CC1CCN(C(=O)[C@H]2CCCCN2)CC1)Nc1cc(C(F)(F)F)cc(C(F)(F)F)c1 [Compound 74] | – | – | – | – | – | – | – | – | – | – | – | – | – | – | % Spike Change Mean [1]: −53% |
| NC1(CC(=O)N2CCC(O)(CC(=O)Nc3cc(C(F)(F)F)cc(C(F)(F)F)c3)CC2)CCCCC1 [Compound 54, 2-(1-(2-(1-aminocyclohexyl)acetyl)-4-hydroxypiperidin-4-yl)-N-(3,5-bis(trifluoromethyl)phenyl)acetamide] | 41% | 39% | 45% | 80 nM | 25% | 75% | 75% | 75% | – | – | – | – | – | – | Epilepsy 6 Hz (% Protected) (6 Hz psychomotor seizure; 4 hr): 100% |
| NC1(CC(=O)N2CCC(NC(=O)Nc3cc(C(F)(F)F)cc(C(F)(F)F)c3)CC2)CCCCC1 [Compound 75] | 5% | 3% | 3% | – | – | – | – | – | – | – | – | – | – | – | – |
| NC1(CC(=O)N2CCC(CC(=O)Nc3cc(C(F)(F)F)cc(C(F)(F)F)c3)CC2)CCCCC1 [Compound 8, 2-(1-(2-(1-aminocyclohexyl)acetyl)piperidin-4-yl)-N-(3,5-bis(trifluoromethyl)phenyl)acetamide] | – | – | – | 110 nM | 75% | 75% | 67% | 100% | > 10000 nM | 0% | 50% | 75% | 100% | 100% | – |
| NCC1(CC(=O)O)CCCCC1 [Gabapentin, gabapentin, reference compound] | – | – | – | – | – | – | – | – | – | – | – | – | – | – | % Antiallodynia (Mean ± SD) ([2]; 1 h): 73 ± 35 %; % Antiallodynia (Mean ± SD) ([2]; 2 h): 90 ± 18 %; % Antiallodynia (Mean ± SD) ([2]; 4 h): 15 ± 8%; anti-allodynia performance compared with first study ([2]; second repetition of the study): performed similarly |
| O=C(CC1CCN(C(=O)C2CNCCO2)CC1)Nc1cc(C(F)(F)F)cc(C(F)(F)F)c1 (centres unmarked) [Compound 4, N-(3,5-bis(trifluoromethyl)phenyl)-2-(1-(morpholine-2-carbonyl)piperidin-4-yl)acetamide] | – | – | – | 2180 nM | – | – | – | – | > 10000 nM | 25% | 0% | 75% | 75% | 75% | – |
